The source made the active and inactive calls.
Experiments:
[1] = test system: P388; test: cells; type: functional
[2] = test system: SN12K1; test: cells; type: functional; conditions: Homo sapiens
[3] = test system: P388/ADR; test: cells; type: functional
[4] = Luminescence Cell-Based Dose Confirmation HTS to Identify Activators of 5'UTR Stem-Loop Driven Alpha-Synuclein mRNA Translation in H4 Neuroglioblastoma Cells. [Related pubchem assays: 1829 (Project Summary), 1814 (Primary HTS)]; type: functional
[5] = viability of PTEN-deleted HCT116 cells – cell-based, HCT116 PTEN knockout, dose response (AID 1047); type: functional;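 further: HCT116 colon tumor cells with PTEN knocked out; cells exposed to compound for 60 hours before readout; potency for loss of cell viability measured by luminescence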
[6] = Luminescence Cell-Based Dose Response HTS to Identify Activators of Luciferase Translation or Activity in H4 […] Cells. [Related pubchem assays: 1829 (Project Summary), 1814 (Primary HTS)]; type: functional
[7] = test system: H4; test: Luminescence Cell-Based Dose Response HTS to Identify Activators of 5'UTR Stem-Loop Driven Prion Protein mRNA Translation in H4 Neuroglioblastoma Cells. [Related pubchem assays: 1829 (Project Summary), 1814 (Primary HTS)]; type: functional; conditions: Homo sapiens
[8] = viability of HCT116 lacking mutant beta-catenin – cell-based, human colon tumor, dose response (AID 1045); type: functional;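 further: HCT116 colon tumor cells with beta catenin knocked out; cells exposed to compound for 60 hours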
[9] = test system: Streptococcus; test: GAS UMAA2166 growth inhibition – luminescence, BacTiterGlo, counter-screen for streptokinase expression inhibitor project, dose response (AID 1915); type: functional, organism-based;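 further: potency for reduction of bacterial viability or growth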
[10] = test system: Streptococcus sp. 'group A'; test: Streptococcus pyogenes SK(-)GAS viability under kanamycin – luminescence, BacTiterGlo, confirmation, counter-screen for streptokinase expression inhibitor project, dose response (AID 1900); type: functional, organism-based
[11] = biological target: T1, Streptokinase A (Streptococcus pyogenes serotype M1, UniProt P10520); test: viability-normalized secreted streptokinase activity reduction – plasminogen activation absorbance, OD405, dose response (AID 1914); type: functional, Streptococcus pyogenes M1 GAS;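 further: secreted streptokinase activity via plasminogen activation per viability signal from cell pellet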
T1 sequence (P10520 whole entry): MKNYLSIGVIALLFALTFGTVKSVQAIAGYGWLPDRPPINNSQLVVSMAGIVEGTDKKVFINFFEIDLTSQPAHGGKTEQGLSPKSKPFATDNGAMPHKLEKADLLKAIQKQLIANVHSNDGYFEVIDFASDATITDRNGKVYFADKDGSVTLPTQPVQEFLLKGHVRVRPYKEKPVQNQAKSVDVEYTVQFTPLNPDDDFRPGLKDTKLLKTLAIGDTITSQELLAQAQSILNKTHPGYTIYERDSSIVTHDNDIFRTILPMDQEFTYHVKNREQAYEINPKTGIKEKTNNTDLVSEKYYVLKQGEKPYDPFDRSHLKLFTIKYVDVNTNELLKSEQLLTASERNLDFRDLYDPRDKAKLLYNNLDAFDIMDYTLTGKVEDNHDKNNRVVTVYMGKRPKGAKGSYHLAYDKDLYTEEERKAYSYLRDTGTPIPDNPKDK

[12] = biological target: T2, Zinc finger protein mex-5 (Caenorhabditis elegans, UniProt Q9XUB2); test: potency of MEX-5 RNA-binding blockers – biochemical, C. elegans, fluorescence polarization, dose response (AID 1960)
T2 sequence (Q9XUB2 whole entry): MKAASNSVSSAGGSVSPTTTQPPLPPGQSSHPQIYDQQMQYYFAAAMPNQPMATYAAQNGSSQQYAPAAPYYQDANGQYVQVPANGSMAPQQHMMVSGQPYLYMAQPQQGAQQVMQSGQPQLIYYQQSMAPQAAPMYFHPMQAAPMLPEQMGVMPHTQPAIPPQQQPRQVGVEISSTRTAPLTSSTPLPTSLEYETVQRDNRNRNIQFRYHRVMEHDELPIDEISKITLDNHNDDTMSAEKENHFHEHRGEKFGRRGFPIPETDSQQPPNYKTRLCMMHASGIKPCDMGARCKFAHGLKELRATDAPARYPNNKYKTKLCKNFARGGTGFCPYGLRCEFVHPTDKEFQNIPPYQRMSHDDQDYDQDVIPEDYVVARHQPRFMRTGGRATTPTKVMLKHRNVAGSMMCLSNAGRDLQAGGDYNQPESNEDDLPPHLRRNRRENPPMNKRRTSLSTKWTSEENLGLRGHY

[13] = biological target: T3, RNA-binding protein pos-1 (Caenorhabditis elegans, UniProt G5EF15); test: disruptors of C. elegans POS-1 RNA interaction – biochemical, fluorescence polarization, dose response (AID 1964);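 further: purified POS-1 fused to maltose binding protein made in E. coli; potency of compounds blocking POS-1 binding to fluorescent RNA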
T3 sequence (G5EF15 whole entry): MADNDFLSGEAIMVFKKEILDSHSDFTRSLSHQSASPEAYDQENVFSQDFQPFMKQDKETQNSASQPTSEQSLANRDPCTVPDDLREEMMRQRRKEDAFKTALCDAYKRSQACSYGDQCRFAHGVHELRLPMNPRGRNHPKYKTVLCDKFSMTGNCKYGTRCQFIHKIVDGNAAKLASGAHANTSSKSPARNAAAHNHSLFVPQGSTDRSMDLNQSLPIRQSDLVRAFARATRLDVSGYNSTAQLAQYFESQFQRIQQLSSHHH

[14] = microbe, parasite or virus in culture; type: functional; conditions: Mycobacterium tuberculosis
[15] = Luminescence Cell-Based Dose Retest to Confirm Inhibitors of Cancer Stem Cells. [Related pubchem assays (depositor defined):AID2717, AID2721]; type: functional; conditions: Homo sapiens
[16] = biological target: T4, Replicative DNA helicase DnaB (Mycobacterium tuberculosis, UniProt P9WMR3); test: DnaB intein splicing inhibitors, dose response, biochemical, cell-free fluorescence (AID 449749); type: functional
T4 sequence (P9WMR3 whole entry): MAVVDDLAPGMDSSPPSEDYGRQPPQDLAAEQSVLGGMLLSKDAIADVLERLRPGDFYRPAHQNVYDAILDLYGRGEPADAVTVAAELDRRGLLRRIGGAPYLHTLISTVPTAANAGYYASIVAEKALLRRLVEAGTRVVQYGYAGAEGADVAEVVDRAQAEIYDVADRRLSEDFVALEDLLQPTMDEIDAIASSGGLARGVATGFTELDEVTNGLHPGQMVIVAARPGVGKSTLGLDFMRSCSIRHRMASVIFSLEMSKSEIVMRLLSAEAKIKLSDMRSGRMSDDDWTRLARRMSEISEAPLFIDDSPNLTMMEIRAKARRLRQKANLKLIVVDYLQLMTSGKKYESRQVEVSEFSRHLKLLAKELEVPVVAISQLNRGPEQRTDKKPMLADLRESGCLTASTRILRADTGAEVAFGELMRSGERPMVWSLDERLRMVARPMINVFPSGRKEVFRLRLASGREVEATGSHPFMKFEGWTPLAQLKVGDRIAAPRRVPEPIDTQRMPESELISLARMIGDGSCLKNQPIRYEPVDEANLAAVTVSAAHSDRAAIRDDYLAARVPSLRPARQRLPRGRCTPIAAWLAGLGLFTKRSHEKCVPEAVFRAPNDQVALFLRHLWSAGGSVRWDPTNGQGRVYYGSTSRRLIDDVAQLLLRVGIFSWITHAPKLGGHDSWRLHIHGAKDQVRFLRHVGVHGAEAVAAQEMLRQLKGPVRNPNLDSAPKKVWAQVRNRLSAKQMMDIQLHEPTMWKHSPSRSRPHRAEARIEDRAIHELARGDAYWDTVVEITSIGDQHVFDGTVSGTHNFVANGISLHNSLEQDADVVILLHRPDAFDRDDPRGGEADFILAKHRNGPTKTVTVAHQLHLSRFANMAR

[17] = biological target: T5, Protein RecA (Mycobacterium tuberculosis, UniProt P9WHJ3); test: Fluorescence Cell-Free Homogeneous Dose Retest to Identify Inhibitors of RecA-Intein Splicing Activity. [Related pubchem assays (depositor defined):AID2097, AID2223, AID489010, AID492950]; type: functional
T5 sequence (P9WHJ3 whole entry): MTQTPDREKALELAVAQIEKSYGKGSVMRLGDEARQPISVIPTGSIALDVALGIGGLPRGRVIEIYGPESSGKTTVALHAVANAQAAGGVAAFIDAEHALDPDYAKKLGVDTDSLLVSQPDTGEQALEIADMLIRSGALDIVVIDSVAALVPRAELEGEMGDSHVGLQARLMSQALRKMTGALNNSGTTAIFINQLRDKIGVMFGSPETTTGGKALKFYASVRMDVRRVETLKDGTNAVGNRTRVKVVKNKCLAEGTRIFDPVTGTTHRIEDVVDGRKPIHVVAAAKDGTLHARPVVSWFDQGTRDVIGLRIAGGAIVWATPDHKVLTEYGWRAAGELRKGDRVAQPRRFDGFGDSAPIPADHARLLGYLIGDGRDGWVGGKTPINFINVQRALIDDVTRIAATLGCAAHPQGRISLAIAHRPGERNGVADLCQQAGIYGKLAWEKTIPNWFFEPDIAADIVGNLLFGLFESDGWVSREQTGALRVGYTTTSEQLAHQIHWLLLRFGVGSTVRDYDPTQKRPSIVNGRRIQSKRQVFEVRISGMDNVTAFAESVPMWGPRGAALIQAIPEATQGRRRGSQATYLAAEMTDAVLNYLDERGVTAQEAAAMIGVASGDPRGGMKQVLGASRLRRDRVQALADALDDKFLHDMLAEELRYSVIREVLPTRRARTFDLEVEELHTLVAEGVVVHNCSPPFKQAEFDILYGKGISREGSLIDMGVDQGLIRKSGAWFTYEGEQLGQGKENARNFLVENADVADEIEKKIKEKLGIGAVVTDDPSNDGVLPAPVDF

Row | Compound | GI50 ([1]; Mus musculus, P388) | GI50 [2] | GI50 ([3]; Mus musculus, P388/ADR) | CC50 [14] | also measured
1 | Cc1c2cnccc2c(C)c2c1c1ccccc1n2CCCN | 0.0931 µM (active) | 0.222 µM (active) | 0.157 µM (active) | – | –
2 | CCOC(=O)c1ccc(-c2ccc(/C=N/NC(=O)CN(c3ccccc3Cl)S(C)(=O)=O)o2)cc1 | – | – | – | – | EC50 [4]: 14.3 µM (active); EC50 [5]: 29.4 µM (active); EC50 [6]: 28.6 µM (active); EC50 [7]: 33.3 µM (active); EC50 [8]: 37.6 µM (active)
3 | CC(=O)Nc1ccc(S(=O)(=O)N2CCN=C2SCc2ccc(C)cc2)cc1 | – | – | – | – | EC50 [4]: 45 µM (active); EC50 [9]: > 150 µM (not active); EC50 [10]: > 150 µM (not active); EC50 [6]: 48.2 µM (active); EC50 [7]: 8.96 µM (active); EC50 [11]: > 150 µM (not active)
4 | CCc1ccc(N2C(=O)NC(=O)/C(=C\c3cc(C)n(-c4cc(C(=O)O)cc(C(=O)O)c4)c3C)C2=O)cc1 | – | – | – | – | EC50 [12]: > 300 µM (not active); EC50 [13]: > 300 µM (not active)
5 | Cc1cc(N2CCCCC2)n2ncc(-c3ccc(Cl)cc3)c2n1 | – | – | – | > 40 µM (active) | AC50 [15]: 4.92 µM (active)
6 | Nc1ncn(C2OC(CO)C(O)C2O)c(=O)n1 (configuration not stated) | 0.348 µM (active) | – | 0.393 µM (active) | – | GI50 [1]: 0.452 µM (active); GI50 [3]: 0.489 µM (active)
7 | N#CC(OC1OC(COC2OC(CO)C(O)C(O)C2O)C(O)C(O)C1O)c1ccccc1 (configuration not stated) | > 225 µM (inactive) | > 225 µM (inactive) | > 225 µM (inactive) | – | –
8 | C=C1CC(OC)(C(O)C(=O)N[C@H]2OCO[C@H]3C2O[C@H](C[C@H](O)COC)C(C)(C)C3OC)O[C@H](C)[C@@H]1C (some centres not stated) | < 0.00773 µM (active) | < 0.00773 µM (active) | < 0.00773 µM (active) | – | –
9 | NC(=O)c1csc(C2OC(CO)C(O)C2O)n1 (configuration not stated) | 1.86 µM (inactive) | 77.8 µM (inactive) | 1.79 µM (inactive) | – | –
10 | CC(=O)c1ccc(NC(=O)COC(=O)c2c3c(nc4ccccc24)/C(=C\c2cccs2)CCC3)cc1 | – | – | – | 12.4 µM (active) | AC50 [15]: 3.85 µM (active)
11 | O=P1(Oc2ccc(Cl)cc2Cl)Oc2cc3ccccc3cc2O1 | 14 µM (inactive) | 59.4 µM (inactive) | 22.4 µM (inactive) | – | –
12 | CCOC(=O)c1c(NC(=O)CSc2nc3cc(OC)ccc3[nH]2)sc2c1CC(C)(C)NC2(C)C | – | – | – | 21.6 µM (active) | –
13 | C#CCn1/c(=N/C(=O)c2cc(Cl)sc2Cl)sc2cc(S(N)(=O)=O)ccc21 | – | – | – | > 40 µM (active) | EC50 [9]: > 150 µM (not active); EC50 [10]: 14 µM (active); EC50 [11]: > 150 µM (not active)
14 | CSCC[C@@H](NC(=O)[C@H](CC(C)C)NC(=O)C(Cc1cnc[nH]1)NC(=O)CNC(=O)[C@@H](NC(=O)[C@H](C)NC(=O)[C@H](Cc1c[nH]c2ccccc12)NC(=O)[C@H](CCC(N)=O)NC(=O)[C@@H](N)CC(N)=O)C(C)C)C(N)=O (some centres not stated) | > 100 µM (inactive) | > 100 µM (inactive) | > 100 µM (inactive) | – | –
15 | CC1=C(O)C(=O)[C@@H]2O[C@@H]2C1=O | 0.542 µM (active) | 11.1 µM (inactive) | 1.09 µM (active) | – | –
16 | Cc1c(-c2ccc(-c3ccccc3F)cc2)nc2ccc(F)cc2c1C(=O)O [BREQUINAR SODIUM] | 0.359 µM (active) | 0.0902 µM (active) | 0.197 µM (active) | – | –
17 | CC(C)c1nnc(NC(=O)CCC(=O)N2CCN(c3ccc(Cl)cc3)CC2)s1 | – | – | – | > 40 µM (active) | –
18 | CC[C@](C)(O)C(=O)O[C@H]1C(=O)O[C@@H]2C[C@H]3C(C)=CC(=O)[C@@H](O)[C@]3(C)[C@H]3[C@@]4(O)OC[C@]32[C@@H]1[C@@H](C)[C@H]4O [GLAUCARUBINONE] | 0.0676 µM (active) | 0.05 µM (active) | 0.664 µM (active) | – | –
19 | COc1ccc(-c2oc(NC(=O)CCl)c(C#N)c2-c2ccc(OC)cc2)cc1 | – | – | – | 10.1 µM (active) | EC50 [9]: > 150 µM (not active); EC50 [10]: 1.18 µM (active); AC50 [16]: 0.416 µM (active); EC50 [17]: 0.67 µM (active); EC50 [11]: 1.16 µM (active)
20 | COc1ccc(C2=NN(C(=O)COC(=O)c3ccc(S(C)(=O)=O)c([N+](=O)[O-])c3)C(c3ccco3)C2)cc1 (configuration not stated) | – | – | – | 9.73 µM (active) | AC50 [15]: 1.52 µM (active)
